Data on eleven molecules can be found in publication PMC9611727, “Optimization of a Novel Mandelamide-Derived Pyrrolopyrimidine Series of PERK Inhibitors” (Pharmaceutics, 2022).

Usually AUC(0-t) stands for the area under the concentration-time curve up to a stated or last time point. A high value points to high exposure. By Cmax is commonly meant the peak of the concentration-time curve.

The target of one data set is T1, PERK (Homo sapiens, UniProt Q9NZJ5).
T1 sequence (Q9NZJ5 30-1116): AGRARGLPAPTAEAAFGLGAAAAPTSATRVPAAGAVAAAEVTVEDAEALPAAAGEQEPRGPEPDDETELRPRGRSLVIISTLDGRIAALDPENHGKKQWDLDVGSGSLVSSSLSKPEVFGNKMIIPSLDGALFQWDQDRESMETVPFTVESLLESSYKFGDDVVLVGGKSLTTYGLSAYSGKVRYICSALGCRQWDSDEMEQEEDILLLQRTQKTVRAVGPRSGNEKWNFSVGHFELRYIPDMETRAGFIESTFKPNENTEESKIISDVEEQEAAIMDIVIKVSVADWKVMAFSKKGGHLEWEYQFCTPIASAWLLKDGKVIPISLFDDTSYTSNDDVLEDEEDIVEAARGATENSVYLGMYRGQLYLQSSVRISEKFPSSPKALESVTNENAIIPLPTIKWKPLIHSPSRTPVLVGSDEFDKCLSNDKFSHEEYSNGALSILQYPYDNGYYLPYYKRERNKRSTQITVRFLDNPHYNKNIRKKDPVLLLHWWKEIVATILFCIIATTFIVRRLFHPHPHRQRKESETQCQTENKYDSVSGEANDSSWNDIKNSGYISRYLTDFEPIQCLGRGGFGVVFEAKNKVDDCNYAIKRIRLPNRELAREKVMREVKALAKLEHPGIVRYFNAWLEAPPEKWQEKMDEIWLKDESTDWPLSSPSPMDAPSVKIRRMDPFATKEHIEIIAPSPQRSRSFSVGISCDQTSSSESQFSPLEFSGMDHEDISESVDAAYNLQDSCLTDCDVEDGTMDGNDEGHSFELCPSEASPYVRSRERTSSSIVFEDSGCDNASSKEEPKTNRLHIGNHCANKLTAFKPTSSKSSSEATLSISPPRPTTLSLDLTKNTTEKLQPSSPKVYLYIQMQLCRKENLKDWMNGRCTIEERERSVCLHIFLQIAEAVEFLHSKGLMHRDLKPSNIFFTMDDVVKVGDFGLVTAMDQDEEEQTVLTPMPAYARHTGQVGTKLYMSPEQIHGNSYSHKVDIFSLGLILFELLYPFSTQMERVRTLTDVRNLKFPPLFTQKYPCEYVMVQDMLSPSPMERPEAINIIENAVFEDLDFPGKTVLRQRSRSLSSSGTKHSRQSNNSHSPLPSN
The experiment in a line: PERK biochemical LanthaScreen TR-FRET assay (GFP-eIF2a phosphorylation). As to the method:
Methods used to evaluate biochemical PERK activity are described and published elsewhere. In brief, biochemical PERK activity is evaluated using a LanthaScreenTM ([…]) TR-FRET assay to detect phosphorylation of a GFP-tagged eIF2a substrate (ThermoFisher). Excitation at […] of a terbium chelate donor fluorophore in an eIF2a antibody results in energy transfer to GFP acceptor fluorophore upon eIF2a phosphorylation by PERK. Reaction buffer was composed of 50 mM HEPES (pH 7.4), 10 mM MgCl2, 1 mM EGTA and 0.01% (v/v) BrijTM-35. Reactions were initiated by the addition of substrate and ATP, followed by incubation for 1 h at RT prior to addition of EDTA and the anti-peIF2a antibody. FRET was measured by an EnVision Plate Reader (PerkinElmer). Data were plotted as percent inhibition along a 10-point 3-fold dilution series of inhibitors. IC50 values were calculated using 4-parameter logistical fitting in XLFit.
The PERK activity of analog I was evaluated using cell-free biochemical assays. In these assays, PERK phosphorylation of eIF2a was assessed using a FRET-based labelled protein assay. Compounds were then evaluated for cellular activity by quantifying inhibition of eIF2a phosphorylation in HEK293 cells treated with the ER inducer tunicamycin [7].

Data set [1] can be described thus: Metabolic clearance in hepatocytes, rat. Format: in vitro ADME. The settings on record: male, Sprague Dawley, cryopreserved rat hepatocytes, read-out: Hepatocyte Clearance (t1/2 min) Rat. As to the method:
Metabolic Clearance in Hepatocytes
Testosterone was obtained from Cerilliant (Round Rock, TX). 7-Hydroxycoumarin was obtained from Sigma-Aldrich (St.
Louis, MO). Ten-donor male pooled cryopreserved human hepatocytes, cryopreserved male Sprague Dawley rat hepatocytes, cryopreserved male ICR/CD-1 mouse hepatocytes, cryopreserved male beagle dog hepatocytes, In VitroGro HI Medium (Incubation), and InVitroGro HT Medium (Thawing) were obtained from Bioreclamation IVT (Baltimore, MD). All solvents were obtained from commercial sources and used without further purification.Test compound was prepared as a 1 mM stock solution in DMSO. A 2 µM solution of test compound and testosterone was prepared (7 - hydroxycoumarin was prepared at 20 µM) in In VitroGro HI Medium (Incubation). These solutions were placed in a sterile incubator set to maintain 37°C, 5% CO2, and 98% humidity to pre-warm. Cryopreserved hepatocytes were prepared at a concentration of 2 x 10^6 living cells/mL in incubation media and placed in the incubator to pre-warn. The compound solutions and hepatocyte mixtures were then combined at a ratio of 1:1 (v:v). The final volume of the reaction mixture was 750 µL, containing 1 µM test compound and 1 x 10^6 cells/mL. The reaction mixture was placed in the incubator on a plate shaker. After 0, 15, 30, 60, 90, and 120 minutes of incubation, 100 µL of reaction mixtures were removed from the incubation plate and mixed with 150 µL of ice-cold acetonitrile in a designated well of a 96-well crash plate. The 96-well crash plate was placed on ice for 15 min, and samples were centrifuged (3,600 rpm, 10 min, 4 °C) to precipitate protein.
The supernatants were diluted 1:1 (v/v) with water containing tolbutamide, (internal standard for positive and negative modes, respectively) in a 96-well shallow injection plate. This plate was sealed for LC-MS analysis. All measurements

The nature of data set [2]: Mouse plasma PK after oral gavage. The following applies: female, CD1, mouse, mice, 10 mg/kg PO. The format is in vivo. The protocol: For PK analysis of pyrrolopyrimidine analogs in mouse, rat, and dog plasma, the oral formulation was prepared as a solution containing 20% (w/v) Captisol in 25 mM NaH2PO4 buffer (pH 2). Compounds were administered orally by gavage at 10 mg/kg to female CD1 mice. After dosing, plasma samples were collected to characterize the PK profiles at 0.25, 0.5, 1, 2, 4, 8, 12 and 24 h post-dose. The plasma concentration of compound was determined by protein precipitation with acetonitrile and liquid chromatography with mass spectrometric detection (LC-MS/MS). Parameters were estimated using Phoenix (WinNonlin) pharmacokinetic software version 6.1.0 using a non-compartmental approach consistent with the oral route of administration. PK analysis of 26 in plasma and pancreas followed a similar analytical method as above, with minor modifications. Compound 26 was suspended in a vehicle consisting of 0.5% methylcellulose (400 cP) and 0.1% Tween80 in water and administered to BALB/c nude mice by oral gavage at 0.3, 1, 3, 10, 30 mg/kg. Plasma and pancreas were sampled from 5 mice per group following a single oral administration at 1, 4, 8, 12, 24 h post-dose.

Setting [3] is: cell-free TR-FRET, GFP-eIF2a substrate, read-out: PERK IC50.

Like-named read-outs stand apart in the source and are kept apart here.

Take `Cc1cc(NC(=O)[C@H](O)c2cccc(F)c2)ccc1-c1cn(C)c2ncnc(N)c12` [Compound 11, (R)-N-(4-(4-amino-7-methyl-7H-pyrrolo[2,3-d]pyrimidin-5-yl)-3-methylphenyl)-2-(3-fluorophenyl)-2-hydroxy acetamide]: on PERK (setting [3]), the IC50 was determined as 2.2 nM.
`Cc1nc(N)c2c(-c3ccc(NC(=O)[C@H](O)c4cccc(F)c4)cc3C)cn(C)c2n1` [Compound 24]: the half-life at 1 µM in data set [1] is 0.383 h. Moreover, in data set [2], the AUC(0-t) amounted to 37500 ng·h/mL, the highest level (Cmax) was 13100 ng/mL, the bioavailability was determined as 77% and the half-life is 2.1 h. At PERK (setting [3]), the IC50 is 20 nM.
For `Cc1nc(N)c2c(-c3ccc(NC(=O)[C@H](O)c4cccc(C(F)(F)F)c4)cc3C)cn(C)c2n1` [Compound 26], the half-life at 1 µM in data set [1] is 2.77 h. In data set [2], the AUC(0-t) is 126000 ng·h/mL, the Cmax was determined as 17200 ng/mL, the bioavailability amounted to 82% and the half-life is 3.5 h. Further, the IC50 on PERK (setting [3]) was found to be 2.8 nM.
For `Cc1nc(N)c2c(-c3ccc(NC(=O)[C@H](O)c4cccc(Cl)c4)cc3C)cn(C)c2n1` [Compound 28], the half-life at 1 µM in data set [1] is 0.45 h. Also, in data set [2], the AUC(0-t) is 65800 ng·h/mL, the highest level (Cmax) was 14100 ng/mL, the bioavailability was found to be 84% and the half-life is 2.4 h. Also, the IC50 on PERK (setting [3]) is 1.8 nM.
For `Cc1nc(N)c2c(-c3ccc(NC(=O)[C@H](O)c4cc(F)cc(F)c4)cc3C)cn(C)c2n1` [Compound 38], in data set [1], the half-life at 1 µM came out at 2.02 h. In data set [2], the AUC(0-t) is 28900 ng·h/mL, the Cmax amounted to 8600 ng/mL, the bioavailability was 94% and the half-life was 2 h. For the same molecule, on PERK (setting [3]), the IC50 was determined as 1.9 nM.
For the molecule `Cc1nc(N)c2c(-c3ccc(NC(=O)[C@H](O)c4cc(F)cc(C(F)(F)F)c4)cc3C)cn(C)c2n1` [Compound 39], the half-life at 1 µM in data set [1] came to 4.2 h. In data set [2], the AUC(0-t) was 86400 ng·h/mL, the highest concentration (Cmax) was found to be 14300 ng/mL, the bioavailability is 78% and the half-life was 2.9 h. Moreover, the IC50 at PERK (setting [3]) was determined as 2.6 nM.
For the molecule `Cc1cc(F)cc([C@@H](O)C(=O)Nc2ccc(-c3cn(C)c4nc(C)nc(N)c34)c(C)c2)c1` [Compound 41], in data set [1], the half-life at 1 µM amounted to 0.267 h. Further, in data set [2], the AUC(0-t) was found to be 26000 ng·h/mL, the Cmax stood at 12500 ng/mL, the bioavailability is 40% and the half-life is 2.7 h. The IC50 at PERK (setting [3]) was determined as 1.4 nM.
As to `Cc1nc(N)c2c(-c3ccc(NC(=O)[C@H](O)c4cccc(Cl)c4)cc3F)cn(C)c2n1` [Compound 48], in data set [1], the half-life at 1 µM turned out to be 0.417 h. In data set [2], the AUC(0-t) amounted to 10900 ng·h/mL, the Cmax stood at 3020 ng/mL, the bioavailability came to 70% and the half-life is 2.1 h. Moreover, the IC50 at PERK (bound stated, read-out: biochemical potency) was less than 5 nM. The IC50 on PERK (setting [3]) came out at 1 nM.
Take `Cc1nc(N)c2c(-c3ccc(NC(=O)[C@H](O)c4cccc(F)c4)c(F)c3C)cn(C)c2n1` [Compound 65]: the half-life at 1 µM in data set [1] amounted to 0.367 h. In data set [2], the AUC(0-t) amounted to 40100 ng·h/mL, the peak level (Cmax) was 8150 ng/mL, the bioavailability came to 129% and the half-life is 2.2 h. The IC50 on PERK (setting [3]) was 1.9 nM.
In the case of `Cc1nc(N)c2c(-c3cc(F)c(NC(=O)[C@H](O)c4cccc(F)c4)cc3C)cn(C)c2n1` [Compound 66], the half-life at 1 µM in data set [1] was 0.217 h. Further, in data set [2], the AUC(0-t) came to 39800 ng·h/mL, the maximum concentration (Cmax) is 9610 ng/mL, the bioavailability was found to be 126% and the half-life was 2 h. Moreover, the IC50 on PERK (setting [3]) was 11 nM.
Consider `Cc1nc(N)c2c(-c3ccc(NC(=O)[C@H](O)c4cccc(F)c4)c(F)c3F)cn(C)c2n1` [Compound 70, (R)-N-(4-(4-amino-2,7-dimethyl-7H-pyrrolo[2,3-d]pyrimidin-5-yl)-2,3-difluorophenyl)-2-(3-fluorophenyl)-2-hydroxyacetamide], for which, in data set [1], the half-life at 1 µM came to 0.25 h. In addition, in data set [2], the AUC(0-t) was determined as 32300 ng·h/mL, the concentration peaked (Cmax) at 9720 ng/mL, the bioavailability is 117% and the half-life is 2 h. Besides, the IC50 on PERK (setting [3]) is 1.5 nM.
